This data set relates to mouse/rat in vivo micronucleus assay, summary call. Nature of the data set: In vivo micronucleus assay summary data. From the text: The erythrocyte micronucleus test examines the ability of substances to cause chromosome damage in developing red blood cells inside bone marrow. A micronucleus (literally, "little nucleus") is a biomarker of structural chromosome damage (e.g., breaks) and changes in chromosome number (e.g., chromosome loss). If a chromosome is broken or fails to migrate properly with other chromosomes during cell division, the broken piece or lost chromosome will form a small (micro) nucleus of its own in one of the two daughter cells produced. Detection of chromosomal damage is important because it has been linked to birth defects, infertility, and certain diseases, including cancer.
The micronucleus test is performed in rapidly dividing cell populations, and bone marrow is a site of rapid blood cell division. Both bone marrow and peripheral blood samples can be examined for the presence of micronuclei in red blood cells.
Animals are treated with a test substance once or daily over a period of time, and the frequency of micronucleated cells is determined 24-48 hours after the final treatment, depending on the source of the cells (bone marrow or blood) that are examined and the treatment regimen.
The test subjects are rodents (rats or mice) that are exposed to the test substance, usually by oral gavage or injection. Typically, one to three daily treatments of the test substance are administered over a range of doses; the highest dose tested is near the maximum tolerated dose. Groups of negative and positive control animals are included for each test. Bone marrow samples are obtained from all animals 24 hours after the last treatment, and red blood cells are examined for the presence of micronuclei.
B. Peripheral Blood Tests
Micronucleus tests are performed on male and female rodents that are exposed to the test substance orally, dermally, or by inhalation in subchronic (e.g., 28 or 90 days) or short term (e.g., 48-72 hours) toxicity studies. 24 to 48 hours after the final exposure, peripheral blood samples are obtained and red blood cells are examined for the presence of micronuclei. Samples may be examined using standard slide scoring procedures or automated flow cytometric approaches. Since 2007, NTP has routinely relied on flow cytometry to evaluate the frequency of micronucleated cells in peripheral blood.
Peripheral blood micronucleus assays are typically integrated into all NTP toxicity studies, and they also lend themselves to serial monitoring of micronucleus frequencies over time, since blood samples can be obtained without the need to sacrifice the animals.
Blood or bone marrow samples from treated animals are compared to samples from untreated animals. With the slide-based approach for data acquisition, 1000-2000 cells were scored per animal. Using flow cytometric procedures to evaluate blood samples, 20,000 immature red blood cells and around one million mature red blood cells are examined per animal, resulting in a marked increase in the ability to detect small changes in the frequency of micronucleated red blood cells. The data is analyzed using statistical methods to determine if there is a significant increase in the frequency of cells containing micronuclei. Both dose-related responses and the magnitude of response for each independent dose group are considered during the evaluation of the data. For a positive test, both a significant dose response (trend) and at least one significant dose group are required. If only one of these measures is present, the test is determined to be questionable. The absence of either condition results in a negative test. The final conclusions for micronucleus tests are determined by considering the results of statistical analyses, reproducibility of any observed effects, and the magnitude of the effects. Ultimately, both the biological significance as well as statistical significance is considered when reaching a final conclusion.
[…]

Results filed as inconclusive are left out. Active and inactive are the calls of the source. No rule for the calls is given here.

Turning to `O=C(O)CCCc1ccc(N(CCCl)CCCl)cc1`, the outcome was “active; positive”.

Turning to `CCOC(C)(C)C`, the outcome was “inactive; negative”.

For the compound `Nc1ccccc1`, the outcome was “active; positive”.

In the case of `Nc1ccn([C@@H]2O[C@H](CO)[C@@H](O)[C@@H]2O)c(=O)n1`, the outcome was “active; positive”.

With `O=C(O)C(Cl)Cl`, the outcome is “active; positive”.

As for `C[N+](C)(C)Cc1ccccc1`, the outcome was “active; positive”.

Take `Nc1nc(=O)n([C@@H]2CS[C@H](CO)O2)cc1F`: the outcome was “active; positive”.

Consider `Cc1c(N)cccc1N`, for which the outcome was “active; positive”.

In the case of `Nc1ncnc2c1ncn2[C@H]1CC[C@@H](CO)O1`, the outcome was “active; positive”.

Turning to `C=CC(=C)C`, the outcome is “active; positive”.

`CCN(N=O)C(N)=O`: the outcome was “active; positive”.

Regarding `CC(C)=CCl`, the outcome was “active; positive”.

Take `OCc1c[nH]c2ccccc12`: the outcome is “inactive; negative”.

On to `O=C(O)c1cc(N=Nc2ccc(S(=O)(=O)Nc3ccccn3)cc2)ccc1O`, for which the outcome is “active; positive”.

Regarding `Oc1cccc(O)c1`, the outcome was “active; positive”.

`C(=NC1CCCCC1)=NC1CCCCC1`: the outcome was “active; weakly positive”.

Take `CCCCC(CC)COC(=O)c1ccccc1C(=O)OCC(CC)CCCC` (stereo unspecified): the outcome was “active; positive”.

Consider `NC(=O)c1ncn([C@@H]2O[C@H](CO)[C@@H](O)[C@H]2O)n1`, for which the outcome was “active; positive”.

As to `CC1C(=O)C[C@]2(C(C)C)C[C@H]12` (stereo partly specified), the outcome is “active; positive”.

As for `ClC=CCCl`, the outcome is “active; positive”.

For the compound `CC#N`, the outcome was “active; positive”.

For the compound `c12c3c4c5c1c1c6c7c2c2c8c3c3c9c4c4c%10c5c5c1c1c6c6c%11c7c2c2c7c8c3c3c8c9c4c4c9c%10c5c5c1c1c6c6c%11c2c2c7c3c3c8c4c4c9c5c1c1c6c2c3c41`, the outcome is “inactive; negative”.

With `C=CC(=O)CC`, the outcome is “inactive; negative”.

For the compound `CC(C)(C)c1ccc(O)c(O)c1`, the outcome was “inactive; negative”.

In the case of `CS(=O)(=O)OC[C@H](O)[C@@H](O)COS(C)(=O)=O`, the outcome is “active; positive”.

For `O=S(=O)(c1ccc(Cl)cc1)c1ccc(Cl)cc1`, the outcome was “active; positive”.

With `O=C1O[C@H]([C@@H](O)CO)C(O)=C1O`, the outcome is “active; positive”.

In the case of `CBr`, the outcome was “active; positive”.

With `Nc1ccc(S(=O)(=O)Nc2ccccn2)cc1`, the outcome was “active; positive”.

As for `Cc1cccc(Nc2cc(Cl)nc(SCC(=O)O)n2)c1C`, the outcome was “inactive; negative”.

In the case of `C=CCO`, the outcome was “inactive; negative”.

Consider `COc1cc(Cc2cnc(N)nc2N)cc(OC)c1OC` (tested in a mixture with another compound), for which the outcome is “active; positive”.

As to `Cc1ncc[nH]1`, the outcome is “active; positive”.

For `CN(C)CCC(c1ccc(Cl)cc1)c1ccccn1` (stereo unspecified), the outcome was “inactive; negative”.

Turning to `FC(F)(F)c1ccc(Cl)cc1`, the outcome was “active; positive”.

Take `CCCC[N+]1(C)CCCC1`: the outcome was “active; negative”.

Take `O=C1c2cccc(O)c2C(=O)c2c(O)cccc21`: the outcome is “inactive; negative”.

Take `CCCCCCc1ccc(O)cc1O`: the outcome is “active; positive”.

In the case of `Nc1ccc(-c2ccccc2)cc1`, the outcome is “active; positive”.

Turning to `CC[n+]1c(-c2ccccc2)c2cc(N)ccc2c2ccc(N)cc21`, the outcome is “inactive; negative”.

As to `CO[C@@]12[C@H](COC(N)=O)C3=C(C(=O)C(C)=C(N)C3=O)N1C[C@@H]1N[C@@H]12`, the outcome was “active; positive”.

`[O-][Br+2]([O-])O`: the outcome was “active; positive”.

`O=C(O)C(F)(F)C(F)(F)C(F)(F)C(F)(F)C(F)(F)C(F)(F)C(F)(F)F`: the outcome was active.

`N[C@@H](Cc1ccc(N(CCCl)CCCl)cc1)C(=O)O`: the outcome was “active; positive”.

Turning to `O=C1c2ccccc2C(=O)c2ccccc21`, the outcome was “active; positive”.

Regarding `C1CCC2CCCCC2C1` (stereo unspecified), the outcome is “active; weakly positive”.

`CC(C)CON=O`: the outcome is “active; positive”.

Turning to `Nc1ccc(Cl)cc1`, the outcome is “active; positive”.

Turning to `Oc1ccccc1`, the outcome was “active; positive”.

Turning to `CC(=O)C(C)O` (stereo unspecified), the outcome is “inactive; negative”.

With `C=C(C)C#N`, the outcome was “inactive; negative”.

Take `Cc1ccc([N+](=O)[O-])cc1`: the outcome is “inactive; negative”.

Turning to `ClC(Cl)Cl`, the outcome is “active; positive”.

On to `CN(N=O)C(N)=O`, for which the outcome was “active; positive”.

Consider `CCOS(C)(=O)=O`, for which the outcome was “active; positive”.

With `C=CCOC(C)=O`, the outcome is “active; weakly positive”.

Take `c1ccccc1`: the outcome is “active; positive”.

Regarding `C=CCc1cc(OC)c2c(c1)OCO2`, the outcome is “active; negative”.

Regarding `COC(=O)c1ccccc1C(=O)OC`, the outcome was “inactive; negative”.

With `Nc1ccccc1Cl`, the outcome was “active; negative”.

In the case of `C=CC(=O)NCNC(=O)C=C`, the outcome is “active; positive”.

As for `C=CCOCC1CO1` (stereo unspecified), the outcome was “active; positive”.

As for `O=S(=O)([O-])[O-].[O]=[V+2]`, the outcome was “inactive; negative”.

As to `Cc1ccc(S(N)(=O)=O)cc1`, the outcome is “inactive; negative”.

For `CCCCOCCO`, the outcome is “inactive; negative”.

Turning to `C=COC(C)=O`, the result was active.

As for `O=P1(N(CCCl)CCCl)NCCCO1` (stereo unspecified), the outcome was “active; positive”.

As for `Cc1cc(O)c2c(c1)C(=O)c1cc(O)cc(O)c1C2=O`, the outcome was “active; positive”.

Take `Nc1cc([N+](=O)[O-])ccc1O`: the outcome was “inactive; negative”.

Regarding `CCOC(N)=O`, the outcome is “active; positive”.

Regarding `CN(C)c1ccc(C(=C2C=CC(=[N+](C)C)C=C2)c2ccccc2)cc1`, the outcome is “inactive; negative”.

Consider `CCCCCC=CC=CC=O`, for which the outcome was “active; equivocal”.

For the compound `BrCCBr`, the outcome is “active; positive”.

With `Oc1c(Cl)c(Cl)c(Cl)c(Cl)c1Cl`, the outcome was “inactive; negative”.

On to `CCC(=O)C(C)=O`, for which the outcome was “inactive; negative”.

As to `CCCC=NO`, the outcome was “active; positive”.

Regarding `Clc1ccc(N=Nc2ccc(Cl)c(Cl)c2)cc1Cl`, the outcome is “active; positive”.

On to `O=C1C=CCCC1`, for which the outcome was “inactive; negative”.

As for `CC(C)c1ccccc1`, the outcome was “active; negative”.

For the compound `CN(C)C(=O)Nc1ccc(Cl)cc1`, the outcome is “active; positive”.

As to `c1cc(OCC2CO2)cc(OCC2CO2)c1` (stereo unspecified), the outcome was “active; positive”.

In the case of `S=c1[nH]c2ccccc2s1`, the outcome was “inactive; negative”.

For `[O]=[Cr](=[O])([OH])[O][Cr](=[O])(=[O])[OH]`, the outcome was “active; positive”.

`OC(O)C(Cl)(Cl)Cl`: the outcome was “active; positive”.

For `O=C1OC(c2ccc(O)cc2)(c2ccc(O)cc2)c2ccccc21`, the outcome was “active; positive”.

With `C=CC(=O)NCCNC(=O)C=C`, the outcome was “active; positive (nonstandard protocol)”.

Regarding `CC/C(=C(/CC)c1ccc(O)cc1)c1ccc(O)cc1`, the outcome is “active; positive”.

Consider `C=CC(N)=O`, for which the outcome was “active; positive”.

Regarding `CC(CCl)OP(=O)(OC(C)CCl)OC(C)CCl` (stereo unspecified), the outcome is “active; positive”.

Consider `C=C(C)c1ccccc1`, for which the outcome was “active; positive”.

With `CC[C@]1(O)C[C@H]2CN(CCc3c([nH]c4ccccc34)[C@@](C(=O)OC)(c3cc4c(cc3OC)N(C=O)[C@H]3[C@@](O)(C(=O)OC)[C@H](OC(C)=O)[C@]5(CC)C=CCN6CC[C@]43[C@@H]65)C2)C1`, the outcome was “active; positive”.

These data come from PubChem BioAssay AID2202558 (NIEHS Division of Translational Toxicology (DTT)).
